We go through six compounds from patent publication US6924309B2 (Children, Youth and Women's Health Service Incorporated, priority 1999, dated 2005).

One experiment is described as follows: Paw oedema. The conditions noted are these: in vivo.
The next experiment has as its target T1, 15-LO (Glycine max, UniProt P08170).
T1 construct: purchased Sigma Chemical Company
T1 sequence (P08170 1-839): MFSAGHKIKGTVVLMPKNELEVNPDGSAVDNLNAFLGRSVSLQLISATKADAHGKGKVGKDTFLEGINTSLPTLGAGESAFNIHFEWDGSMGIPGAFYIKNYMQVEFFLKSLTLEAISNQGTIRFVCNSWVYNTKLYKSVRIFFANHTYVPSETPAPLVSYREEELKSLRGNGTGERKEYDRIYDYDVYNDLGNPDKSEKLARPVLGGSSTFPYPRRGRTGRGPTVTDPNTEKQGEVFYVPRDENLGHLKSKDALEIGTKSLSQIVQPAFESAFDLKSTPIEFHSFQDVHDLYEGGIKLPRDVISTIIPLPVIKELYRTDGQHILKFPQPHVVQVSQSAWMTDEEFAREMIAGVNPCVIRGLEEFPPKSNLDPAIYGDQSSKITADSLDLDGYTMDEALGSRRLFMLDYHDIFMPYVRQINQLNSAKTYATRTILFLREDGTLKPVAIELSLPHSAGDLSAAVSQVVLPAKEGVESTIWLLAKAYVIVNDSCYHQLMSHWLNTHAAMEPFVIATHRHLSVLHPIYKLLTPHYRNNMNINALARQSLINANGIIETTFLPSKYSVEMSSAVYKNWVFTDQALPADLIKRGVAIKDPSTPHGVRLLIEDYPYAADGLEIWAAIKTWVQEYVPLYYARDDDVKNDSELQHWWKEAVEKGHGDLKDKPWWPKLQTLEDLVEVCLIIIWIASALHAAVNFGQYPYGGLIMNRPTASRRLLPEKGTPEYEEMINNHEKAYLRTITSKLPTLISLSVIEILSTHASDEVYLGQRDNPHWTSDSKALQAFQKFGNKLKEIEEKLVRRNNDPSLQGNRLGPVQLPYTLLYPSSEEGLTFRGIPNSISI
The experiment in a line: Effect on 15-LO catalysed oxidation of arachidonic acid. The note with it: for Ki: mixed inhibition pattern. It is filed as biochemical, soybean.

The next experiment addresses T2, 12-LO (Sus scrofa, UniProt P16469).
T2 construct: purchased Cayman Chemical Company
T2 sequence (P16469 1-663): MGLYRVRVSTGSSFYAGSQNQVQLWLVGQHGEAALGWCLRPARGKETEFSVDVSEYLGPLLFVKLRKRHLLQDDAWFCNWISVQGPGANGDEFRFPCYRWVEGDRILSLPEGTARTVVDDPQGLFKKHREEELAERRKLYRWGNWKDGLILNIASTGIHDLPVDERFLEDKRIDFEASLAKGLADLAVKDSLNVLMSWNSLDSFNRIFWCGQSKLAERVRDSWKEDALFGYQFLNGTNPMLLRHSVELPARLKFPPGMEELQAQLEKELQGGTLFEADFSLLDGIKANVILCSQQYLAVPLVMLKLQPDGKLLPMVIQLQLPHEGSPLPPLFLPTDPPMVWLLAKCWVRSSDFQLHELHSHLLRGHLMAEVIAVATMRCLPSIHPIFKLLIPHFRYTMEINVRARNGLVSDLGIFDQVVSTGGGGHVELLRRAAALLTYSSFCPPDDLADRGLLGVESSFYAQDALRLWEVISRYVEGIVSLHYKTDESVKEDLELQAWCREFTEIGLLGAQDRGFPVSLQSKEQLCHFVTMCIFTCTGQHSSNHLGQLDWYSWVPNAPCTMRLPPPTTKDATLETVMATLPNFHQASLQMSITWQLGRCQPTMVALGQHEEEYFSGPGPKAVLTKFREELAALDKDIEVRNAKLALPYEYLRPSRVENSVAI
Kind of experiment: Effect on 12-LO catalysed oxidation of arachidonic acid. Format: biochemical, porcine.

In the next experiment the test system is 5-LO. Kind of experiment: Effect on 5-LO catalysed oxidation of arachidonic acid. Format: biochemical.
Experiment [1] has as its system Plasmodium falciparum isolates 3D7, FC27, K+. Kind of experiment: Radiometric (3H-hypoxanthine) assay on asexual blood stages of P. falciparum. It is filed as cell-based. The method, then:
Using the radiometric assay^(36), the effects of the Lx compounds were examined for antimalarial activity. The Plasmodium falciparum isolates used were 3D7, FC27, K^1 and K^+. These were maintained in human blood group O^+ erythrocytes essentially as described previously using RPM-1640 (HEPES modification) supplemented with 0.25% D-glucose, 0.2% Tess buffer (Sigma Chemical Co, Lt Louis, Mo.) and 10% heat inactivated (56° C., 20 min) human blood group AB serum. Cultures were maintained in tissue culture flasks (Corning, N.Y.) at 37° C. under an atmosphere of 1% 2, 5% CO2 in N2. P. falciparum cultures containing approximately 3.0:% parasitaemia were adjusted to 1×10^8 erythrocytes/ml. To 50 μl of the parasite-erythrocyte culture (5×10^6 erythrocytes) in wells of 96-well microdilution plates wvas added 50 μl of the designated concentration of fatty acid or equivalent amounts of solutions or media. The treated cultures were incubated at 37° C. for 4 h and then pulsed with 50 μl (2.5 μCi) of ^3H-hypoxanthine. After a further 18 h incubation the parasites-erythrocytes were harvested onto glass fibre filter papers using a cell harvester. The amount of radioactivity incorporated was measured in a β-counter. The results have been expressed as % inhibition of parasite growth i.e. the dpm in the fatty acid diluent−dpm in the fatty acid treated cultures/dpm in diluent×100.

The subject of the next experiment is IFN-γ. Kind of experiment: IFN-γ production by human peripheral blood leukocytes. Format: cell-based. The conditions noted are these: Leukocyte, stimulus PHA, read-out: % Inhibition (compared to control) of IFN-γ. On the procedure: (§1) The effects of the nitroalkanes (Lx1-Lx5) on lymphocyte activation and cytokine production were examined. The ability of the PUFA to suppress mitogen-induced proliferation in response to PHA and S. aureus, and to inhibit cytokine production (TNFα and IFNγ), was assessed.

For the next experiment, the system named is TNF-α. Kind of experiment: TNF-α production by human peripheral blood leukocytes. The note with it: Leukocyte, stimulus S. aureus, read-out: % Inhibition (compared to control) of TNF-α. Format: cell-based. On the procedure: as §1
The test system of a further experiment is human neutrophils. The experiment in a line: AA-enhanced chemiluminescence in human neutrophils. The conditions noted are these: neutrophils pretreated with compound. Format: cell-based. On the procedure:
Arachidonic acid (AA) is a natural agonist which stimulates oxygen radical production in neutrophils leading to tissue damage during inflammation. Studies were conducted to examine whether or not the Lx compounds could antagonise the effects of AA. Neutrophils were pretreated with Lx compounds and then examined for chemiluminescence response to AA addition. […] The effect of Lx compounds on AA-enhanced chemiluminescence in human neutrophils is shown graphically in FIG. 11.

Where two headings read alike, the source gives them in different places.

Take `CCCCCCCCCCCCCCCCCC[N+](=O)[O-]` [Lx1, 1-Nitrooctadecane]: the “Effect in paw oedema” value in the experiment “Paw oedema” is reported as “inflammatory”. The “Effect on 15-LO catalysed oxidation of AA” value on 15-LO is “Nil”. Also, the “Effect on 12-LO catalysed oxidation of AA” value at 12-LO is “Nil”. Moreover, in the experiment with 5-LO, the “Effect on 5-LO catalysed oxidation of AA” value is on record as “Nil”.

One may read the inhibition as the share of the control response that was lost under treatment. As for `CC/C=C\C/C=C\C/C=C\CCCCCCCC[N+](=O)[O-]` [Lx2, (z,z,z)-1-Nitro-9,12,15-octadecatriene], the “Antimalarial activity (in words)” value in experiment [1] is listed as “most promising”. Further, the values for the inhibition at 20 µM in the experiment with IFN-γ and with TNF-α were 40.4% and 43.7%, respectively. Also, the “Effect on 15-LO catalysed oxidation of AA” value at 15-LO was “Nil”.

As for `CCCCC/C=C\C/C=C\C/C=C\C/C=C\CCCC[N+](=O)[O-]` [Lx4, (a11-z)-1-Nitro-5,8,11,14-eicosatetraene], the “Antimalarial activity on P. falciparum 3D7 (FIG. 1, in words)” value in experiment [1] (isolate 3D7) was “activity is lost”. The inhibition at 20 µM came out at 79.8% in the experiment with IFN-γ and 34% in the experiment on TNF-α. For the same compound, the “Effect on 15-LO catalysed oxidation of AA” value at 15-LO was “Nil”. Also, at 12-LO, the “Effect on 12-LO catalysed oxidation of AA” value is reported as “Nil”. Also, in the experiment on 5-LO, the “Effect on 5-LO catalysed oxidation of AA” value is “Nil”.

As a reminder, the IC50 is the concentration needed to halve the response being measured. With `CCCCCCCCCCCCCCCCCC(CCC(=O)O)[N+](=O)[O-]` (stereo not shown) [Lx6, 4-Nitrohenicosanoic acid], the entries for the “Effect on 15-LO catalysed oxidation of AA” value at 15-LO and at 15-LO (listed as 6a) were “Activatory” and “not 15LO”, respectively. The entries for the “Effect on 12-LO catalysed oxidation of AA” value at 12-LO and on 12-LO (listed as 6a) were “Activatory” and “Neither 8a nor 6a inhibits 12-LO”, respectively. In addition, the results for the “Effect on 5-LO catalysed oxidation of AA” value with 5-LO, in the experiment on 5-LO (listed as 4-nitrohenicosanoic acid) and with 5-LO (listed as 6a) were “Inhibitory”, “selective inhibitors” and “inhibiting 5-LO”, respectively. In the experiment on 5-LO (read-out: IC50, 5-LO catalysed oxidation of AA), the IC50 was determined as 60 µM.

Take `CCCCCCCCCCCCCCCCCC(CCC(=O)O)(CCC(=O)O)[N+](=O)[O-]` [Lx8, 3-Heptadecyl-3-nitropentane-1,5-dicarboxylic acid]: the results for the “Effect on 15-LO catalysed oxidation of AA” value at 15-LO, at 15-LO (listed as 3-heptadecyl-3-nitropentane-1,5-dicarboxylic acid) and on 15-LO (listed as 8a) were “Inhibitory”, “selective inhibitors” and “inhibitory effect”, respectively. The Ki on 15-LO (read-out: Ki, 15-LO catalysed oxidation of arachidonic acid) was found to be 27.4 µM; on 15-LO (read-out: Kl (second inhibitor constant; printed Ki in Table 3), 15-LO catalysed oxidation of arachidonic acid), 55.2 µM. Moreover, the results for the “Effect on 12-LO catalysed oxidation of AA” value on 12-LO and at 12-LO (listed as 8a) were “Activatory” and “Neither 8a nor 6a inhibits 12-LO”, respectively. Besides, in the experiment on 5-LO, the “Effect on 5-LO catalysed oxidation of AA” value is recorded as “Nil”.

Consider `CCCCC/C=C\C/C=C\C/C=C\C/C=C\CCCC(CCC(=O)O)(CCC(=O)O)[N+](=O)[O-]` [Lx9, 3-[(a11-Z)-Nonadeca-4,7,10,13-tetraenyl] 4-nitroheptane-1,7-dicarboxylic acid], for which the “Antimalarial activity (in words)” value in experiment [1] is recorded as “did not have appreciable antimalarial activity”. The “Effect on 15-LO catalysed oxidation of AA” value on 15-LO is “Nil”. Besides, the “Effect on 12-LO catalysed oxidation of AA” value is recorded as “Inhibitory” on 12-LO, “selective inhibitors” on 12-LO (listed as 3-(all-Z)-nonadeca4,7,10,13-tetraeny]-3-nitropertane-1,5-dicarboxylic acid) and “significant inhibitory effect” on 12-LO (listed as 8b). Besides, the “Effect on 5-LO catalysed oxidation of AA” value in the experiment on 5-LO is listed as “Activatory”. Also, in the experiment on human neutrophils, the “Inhibition of AA-stimulated oxygen radical production (chemiluminescence)” value is listed as “particularly evident”.
